Results reported in EP1161410B1, “RETINOID ANTAGONISTS AND USE THEREOF” (Basilea Pharmaceutica AG, priority 1999, dated 2000).

Key:
[1] = test system: IL-12; assay: IL-12 production by THP-1 cells stimulated with IFNγ and SAC; assay type: cell-based, human; settings: retinoid antagonist (1 µg) added at time 0 together with IFNγ, IFNγ+SAC alone 275
Description: THP-1 cells were obtained from American Tissue Culture Collection and cultured in complete medium. To assay for IL-12 production, THP-1 cells, 1.25 x 10^6 cells/ml, were stimulated with S. aureus Cowan strain (SAC) (1/1000) and human recombinant interferon-γ (huIFN-γ (1000 U/ml) [Ma et al., J. Exp. Med. 183, 147-157 (1996)]. Alternatively, 0.5 x 10^6 human peripheral blood mononuclear cells (PBMC) (1 ml culture in 48 well plates) were primed with huIFN-γ (1000 U/ml) for 16 hours at 37°C, and then stimulated with SAC (1/1000). Supernatants were collected after 48 hours and freezed at -20 °C until assayed [Panina-Bordignon et al., J. Clin. Invest. 100, 1513-1519 (1997)].
IL-12 production was measured by specific enzyme linked immuno sorbant assay (ELISA), using 20C2 antibody (rat anti human IL-12 heterodimer p40-p35), at 2.5 µg/ml in coating buffer, and peroxidase-conjugated 4D6 antibody (rat anti human IL-12) at 250 ng/ml in assay buffer as described [Zhang et al., J. Clin. Invest. 93, 1733-1739 (1994)]. Standard (recombinant human IL-12, 800 pg/ml to 6 pg/ml) and samples (100 µl) diluted in assay buffer were added to duplicate wells. Absorbance was read at 450-650 nm. The unknown IL-12 concentrations of the samples were read from the corresponding standard curve and multiplied by the corresponding dilution factor. Maximal IL-12 production varied between 200 and 400 pg/ml.
Lyophilized retinoid antagonists were diluted in DMSO under yellow light, on ice at a concentration of 2 mM. Serial dilutions (1 µM-1 pM) were prepared in complete RPMI medium. 10 µl of each dilution was added to 1 ml culture.

[2] = test system: IL-10; assay: IL-10 production by activated monocytes (SAC + IFN-γ); assay type: cell-based, human; settings: SAC+IFN-γ alone 1040 pg/ml
[3] = test system: human naive T cells; assay: Inhibition of differentiation of human naive T cells into T helper 2 (Th2) cells; assay type: cell-based; set-up: dose or concentration left out as unconfirmed; settings: for IL-4 expressing cells, % gated cells: Th2 control 26.32; for IL-4 expressing cells, % Th2 cells: Th2 control = 100
Description: In vitro assay for inhibition of differentiation of human naive T cells into T helper 2 (Th2) cells by retinoid antagonists.
Naive T cells from cord blood were isolated and treated as described [Panina-Bordignon et al. J. Clin. Invest. 100. 1513-1519 (1997)]. Briefly, cord blood derived mononuclear cells were incubated with anti-CD45RA and anti-CD4 monoclonal antibodies. After a 20 minute incubation, cells were washed and incubated with goat antimouse Ig-coated magnetic beads. Positive cells were separated and seeded at 1 x 10^6 cells/ml in a 24 well plate, together with autologous adherent cells, PHA, and IL-4 in the presence or absence of Compound H or Compound B […] for 5 days. Cells were then washed and put back in culture in the presence of IL-2 (100 U/ml). After 10 days, the cells were collected and restimulated with PMA (50 ng/ml) and ionomycin (1 µg/ml) for 4 hours. Brefeldin A (10 µg/ml) was added for the last 2 hours. Then the cells were fixed with 4% paraformaldehyde and permeabilized with saponin. Fixed cells were stained with FITC-anti IFNγ and PE-anti-IL-4mAbs and subjected to cytofluorimetric analysis.

[4] = test system: airway inflammatory cell accumulation; assay: Murine model of allergen-induced airway inflammation: airway inflammatory cell accumulation; assay type: in vivo, C57BL/6 mice; settings: for Cell Influx, Total leukocytes: vehicle 795000; for Cell Influx, Eosinophils: vehicle 335000; for Cell Influx, Macrophages: vehicle 443000
Description: Murine model of allergen-induced airway inflammation and hyperresponsiveness.
C57BL/6 mice (8-9 weeks old) are actively sensitized to ovalbumin (OA) on day 0 and on day 14 by a intraperitoneal injection of 10 µg OA + 1 mg Al(OH)3 (gel suspension) in 0.2 ml sterile saline. On day 21, the mice were challenged with 5.0 % OA aerosol for 18 minutes. The aerosol is generated by a De Vilbiss Ultra-Neb 90 ultrasonic nebulizer, the outlet of which is connected to a small plexiglass chamber containing the animals. The mice are dosed with the RXR antagonist Compound B (10 and 30 mg/kg intraperitoneally) daily for three days, 48 hours, 24 hours, and immediately prior to OA challenge. Animals are used on […].
Airway Inflammatory Cell Accumulation: On day 24, three days after the challenge with OA aerosol, animals are anesthetized with urethane (2.4 g/kg) and tracheotomized with a 23 gauge catheter. Lungs are lavaged with aliquots (2 x 1 ml) of sterile Hank's balanced salt solution without Ca^++ and Mg^++. Lavage fluid is recovered after 30 sec by gentle aspiration and pooled for each animal. Samples then are centrifuged at 2000 rpm for 15 minutes at 5 °C. Red blood cells are lysed from the resulting pellet with 0.5 ml distilled water and the cells remaining in the pellet are reconstituted with 5 ml HBSS. Samples are centrifuged a second time at 2000 rpm for 15 minutes at 5 °C. The resulting pellet is suspended in 1 ml of HBSS. Total cell number is determined from an aliquot of the cell suspension using a hemocytometer. For cytological preparations, the cells are fixed on cytocentrifuged slides stained with a modified Wright's stain. Differential counts on at least 300 cells are made using standard morphological criteria to classify cells.

[5] = Clinical trial, topical treatment of precancerous lesions of the skin (multiple actinic keratoses); assay type: in vivo, human; settings: cream 1 % twice daily
From the text: Efficacy of topical application of Compound B in the treatment of precancerous lesions of the skin (multiple actinic keratoses)
In a clinical trial, a cream containing 1 % of Compound B was applied on the lesions twice daily without occlusive dressing. […]

[6] = Patient I, both forearms, 4 months
[7] = Patient IV, face and back of both hands, 3 months

CCCCCCCOc1cc2c(cc1/C(C)=C/c1ccc(C(=O)O)cc1)C(C)(C)CCS2(=O)=O [Compound H, p-[(E)-2-[3',4'-Dihydro-4',4'-dimethyl-7'-(beptyloxy)-2'H-1-benzothiopyran-6'-yl]propenyl]benzoic acid 1',1'-dioxide]
THP-1 IL-12 [1]: 306 pg/mL | IL-10 ([2]; antagonist 10 nM): 1060 pg/mL | IL-10 ([2]; antagonist 100 nM): 1050 pg/mL | IL-10 ([2]; antagonist 1000 nM): 1343 pg/mL | IL-4 expressing cells, % gated cells [3]: 10.8% | IL-4 expressing cells, % Th2 cells [3]: 41%

CCCCOc1c(\C(C)=C/C=C/C(C)=C/C(=O)O)cc(C(C)(C)C)cc1C(C)(C)C [Compound B, (2E,4E,6Z)-7-(3,5-di-tert.butyl-2-butyloxyphenyl]-3-methyl-2,4,6-octatrienoic acid]
Percent of reduction, Eosinophils ([4]; 10 mg/kg intraperitoneally): 48% | Percent of reduction, Macrophages ([4]; 10 mg/kg intraperitoneally): 35% | Percent of reduction, Total leukocytes ([4]; 10 mg/kg intraperitoneally): 39% | Cell Influx, Total leukocytes ([4]; 10 mg/kg intraperitoneally daily for three days): 488000 cells/ml | Cell Influx, Eosinophils ([4]; 10 mg/kg intraperitoneally): 176000 cells/ml | Cell Influx, Macrophages ([4]; 10 mg/kg intraperitoneally): 289000 cells/ml | Percent of reduction, Eosinophils ([4]; 30 mg/kg intraperitoneally): 73% | Percent of reduction, Macrophages ([4]; 30 mg/kg intraperitoneally): 62% | Percent of reduction, Total leukocytes ([4]; 30 mg/kg intraperitoneally): 66% | Cell Influx, Total leukocytes ([4]; 30 mg/kg intraperitoneally daily for three days): 271000 cells/ml | Cell Influx, Eosinophils ([4]; 30 mg/kg intraperitoneally): 91000 cells/ml | Cell Influx, Macrophages ([4]; 30 mg/kg intraperitoneally): 172000 cells/ml | THP-1 IL-12 [1]: 577 pg/mL | IL-10 ([2]; antagonist 10 nM): 1020 pg/mL | IL-10 ([2]; antagonist 100 nM): 1521 pg/mL | IL-10 ([2]; antagonist 1000 nM): 1700 pg/mL | IL-4 expressing cells, % gated cells [3]: 8.5% | IL-4 expressing cells, % Th2 cells [3]: 32% | Adverse Events (particularly irritation of lesions and surrounding skin) [5, 6]: none | Improvement [5, 6]: marked | Reduction in Size of Lesions ([5]; Patient I, m, 53 years, both forearms, 4 months): 50% | Adverse Events (particularly irritation of lesions and surrounding skin) ([5]; Patient II, face, 6 weeks): none | Improvement ([5]; Patient II, face, 6 weeks): slight | Reduction in Size of Lesions ([5]; Patient III (person two), face, 4 months): 30% | Adverse Events (particularly irritation of lesions and surrounding skin) ([5]; Patient III, face, 4 months): none | Improvement ([5]; Patient III, face, 4 months): moderate | Adverse Events (particularly irritation of lesions and surrounding skin) [5, 7]: none | Improvement [5, 7]: moderate | Adverse Events (particularly irritation of lesions and surrounding skin) ([5]; Patient V, face, 2 months): none | Improvement ([5]; Patient V, face, 2 months): no | Reduction in Size of Lesions ([5]; Patient V, m, 74 years, face, 2 months): 0%
